Test results taken from ChEMBL document CHEMBL3994652, “Cytotoxic clerodane diterpenoids from Croton crassifolius” (Bioorg Med Chem Lett, 2017).
Active and inactive are the calls of the source. The calls are words filed in the database; no cut-off is given here.

How the values were obtained:
[1] = test system: Hep 3B2; experiment: Induction of apoptosis in human Hep3B cells assessed as formation of apoptotic bodies at 20 uM after 48 hrs by acridine orange dye-based fluorescence microscopy; assay type: functional, cell-based
[2] = test system: Hep 3B2; experiment: Induction of apoptosis in human Hep3B cells assessed as chromatin condensation at 20 uM after 48 hrs by acridine orange dye-based fluorescence microscopy; assay type: functional, cell-based
[3] = test system: Hep 3B2; experiment: Induction of apoptosis in human Hep3B cells assessed as cleaved PARP level after 48 hrs by Western blot method; assay type: functional, cell-based
[4] = test system: HepG2; experiment: Cytotoxicity against human HepG2 cells assessed as growth inhibition after 48 hrs by MTT assay; assay type: functional, cell-based; settings: HepG2, 48 h
[5] = test system: Hep 3B2; experiment: Cytotoxicity against human Hep3B cells assessed as growth inhibition at 100 uM after 48 hrs by MTT assay; assay type: functional, cell-based
[6] = test system: Hep 3B2; experiment: Induction of apoptosis in human Hep3B cells assessed as increase in cleaved caspase 3 level at 10 to 40 uM after 48 hrs by Western blot method; assay type: functional, cell-based
[7] = test system: Hep 3B2; experiment: Cytotoxicity against human Hep3B cells assessed as growth inhibition after 48 hrs by MTT assay; assay type: functional, cell-based
[8] = test system: HepG2; experiment: Cytotoxicity against human HepG2 cells assessed as growth inhibition at 100 uM after 48 hrs by MTT assay; assay type: functional, cell-based
[9] = test system: Hep 3B2; experiment: Induction of apoptosis in human Hep3B cells assessed as cell shrinkage at 20 uM after 48 hrs by acridine orange dye-based fluorescence microscopy; assay type: functional
[10] = test system: Hep 3B2; experiment: Induction of apoptosis in human Hep3B cells assessed as reduction in pro-caspase 3 level at 10 to 40 uM after 48 hrs by Western blot method; assay type: functional, cell-based

Structure (SMILES) | Activity [1] | Activity [2] | Activity [3] | IC50 [4] [µM] | growth inhibition (GI) [5] | Activity [6] | IC50 [7] [µM] | growth inhibition (GI) [8] | Activity [9] | Activity [10]
C[C@H]1C[C@@H]2OC(=O)[C@]3(C)CCCC(=C23)[C@]12C[C@H](c1ccoc1)OC2=O | Active | Active | Dose-dependent effect | 17.9 | Active | Active | 42 | Active | Active | Active
O=c1[nH]cc(F)c(=O)[nH]1 [FLUOROURACIL] | – | – | – | – | – | – | 49.7 | – | – | –
COC(=O)[C@@]1(C)CC(=O)C=C2C1=CC[C@@H](C)[C@]2(C)CC(=O)c1ccoc1 | – | – | – | – | – | – | 51.6 | Active | – | –
